Our source for the T/C, Toxic dose and Active dose values is ChEMBL document CHEMBL1123356, “Plant antitumor agents. 22. Isolation of 11-hydroxycamptothecin from Camptotheca acuminata Decne: total synthesis and biological activity” (1986).

Assay type in all cases: functional, Mus musculus
Assay [1] relates to L1210. Kind of assay: Compound was tested for maximum percentage T/C in L1210 Leukemia assay at 40 mg/kg (no cures out of 6).
In assay [2] the test system is L1210. Kind of assay: Compound was tested for toxic dose in L1210 Leukemia assay.
In assay [3] the test system is L1210. Put plainly: Compound was tested for active dose in L1210 Leukemia assay; 10-40 mg/kg.
The subject of assay [4] is L1210. Put plainly: Compound was tested for maximum percentage T/C in L1210 Leukemia assay at 60 mg/kg (3 cures out of 6).
Assay [5] deals with L1210. Put plainly: Compound was tested for active dose in L1210 Leukemia assay; 7.5-60 mg/kg.
In assay [6] the test system is L1210. Kind of assay: Compound was tested for active dose in L1210 Leukemia assay; 2-8 mg/kg.
Assay [7] has as its system L1210. Kind of assay: Compound was tested for maximum percentage T/C in L1210 Leukemia assay at 8 mg/kg (no cures out of 6).

`CC[C@@](O)(C(=O)[O-])c1cc2n(c(=O)c1CO)Cc1cc3ccccc3nc1-2.[Na+]` returned a T/C in the assay with L1210 [1] of 178%. Further, the Toxic dose with L1210 [2] worked out at 80 mg/kg. In the assay with L1210 [3], this compound came in with an Active dose of 10 mg/kg.

On to `CC[C@@]1(O)C(=O)OCc2c1cc1n(c2=O)Cc2cc3ccc(O)cc3nc2-1` (racemic), for which the T/C in the assay on L1210 [4] came out at 357%. The Active dose in the assay on L1210 [5] worked out at 7.5 mg/kg.

Compound `CC[C@@]1(O)C(=O)OCc2c1cc1n(c2=O)Cc2cc3ccccc3nc2-1` [CAMPTOTHECIN] yielded an Active dose in the assay with L1210 [6] of 2 mg/kg. In the assay on L1210 [7], the T/C is reported as 164%. For the same compound, in the assay with L1210 [2], the Toxic dose was 16 mg/kg.
